Experimental data reported in the NIST ThermoML archive (doi:10.1016/j.tca.2013.03.018).

Conditions: Liquid, DSC

CCCCCCCCO [octan-1-ol]
Conditions	vapor or sublimation pressure [kPa]
333.69 K	0.2242
333.97 K	0.2242
334.46 K	0.2376
341.76 K	0.3855
342.1 K	0.3855
343.33 K	0.372
344.5 K	0.3855
348.2 K	0.5736
348.72 K	0.587
349.1 K	0.6004
349.38 K	0.587
352.09 K	0.7483
352.98 K	0.802
353.96 K	0.8087
354.96 K	0.7886
357.9 K	1.071
357.94 K	1.057
357.99 K	1.057
358.41 K	1.071
362.88 K	1.434
363.3 K	1.447
363.51 K	1.46
364.35 K	1.474
369.69 K	2.105
369.76 K	2.092
369.9 K	2.132
370 K	2.132
379.04 K	3.436
379.35 K	3.489
379.45 K	3.489
379.49 K	3.489
387.2 K	5.169
387.28 K	5.156
387.87 K	5.182
387.92 K	5.169
407.24 K	13.57
408.44 K	13.58
408.9 K	13.55
409.3 K	13.55
435.48 K	40.47
438.31 K	40.53
438.58 K	40.53
438.8 K	40.53
468.15 K	101.4
468.47 K	101.4
